Tested on: PI3K
Experiment: IGF-1-stimulated phospho-AKT Ser473 in MCF7 cells, Western blot
Type: cell-based, Human
Details: up to 10 μM, 50 ng/mL IGF-1, 30 min
Method: Exponentially growing MCF7 cells were exposed to a range of concentrations of NU5455 and NU7441 (0.03–10 μM) for 1 hour. To assess the ability of NU5455 and NU7441 to inhibit autophosphorylation of DNA-PKcs at Ser2056, cells were treated with 10 Gy irradiation and incubated for 30 minutes. Alternatively, to investigate the effects of NU5455 and NU7441 against PI3K-dependent phosphorylation of AKT at Ser473, cells were treated with 50 ng/mL insulin-like growth factor-1 (IGF-1; Invitrogen) for 30 minutes. Cell lysates were prepared for the detection of p–DNA-PKcs Ser2056 and total DNA-PKcs, or p–AKT Ser473 and total AKT, respectively, using Western blotting. […]
Protein lysates were quantified using the Pierce BCA Protein Assay (ThermoFisher). […]
Membranes were then washed in TBST and incubated with HRP-conjugated goat anti-mouse or anti-rabbit antibodies (P0447 and P0448 respectively, Dako) in 5% (w/v) milk/TBST at room temperature for 1-2 hours. Conjugates were detected using Clarity Western ECL Substrate (BioRad) and chemiluminescence imaged using the Fuji LAS-3000 Luminescent Image Analyzer System (Fujifilm). […]
Alternatively, basal pAKT Ser473 levels were subtracted from all other pAKT bands, and pAKT band intensity calculated relative to total AKT expression and given as a percentage relative to IGF-1 stimulated, DMSO-treated cells. […]

Compound: CN(C(=O)CN1CCOCC1)c1ccc2sc3c(-c4cccc5c(=O)cc(N6CC7CCC(C6)O7)oc45)cccc3c2c1 [NU5455]
- inhibition of IGF-stimulated activation of AKT: did not inhibit

Reference: PMC6934184, “Selective DNA-PKcs inhibition extends the therapeutic index of localized radiotherapy and chemotherapy” (The Journal of Clinical Investigation, 2019)
